{"source": "paper PMC5218480", "about": "(PLoS ONE, 2017)", "test_system": "MV-4-11 cells", "test": "Gene expression microarray analysis (Affymetrix PrimeView) and GSEA", "type": "cell-based, human", "parameters": "RFU PODN (11730768_x_at) / Fold change /veh PODN (11730768_x_at) / RFU LINC00158 (11744669_a_at) / Fold change /veh LINC00158 (11744669_a_at) / RFU DUSP10 (11751237_a_at) / Fold change /veh DUSP10 (11751237_a_at) / RFU ID3 (11757404_x_at) / Fold change /veh ID3 (11757404_x_at) / RFU PLEKHG5 (11737974_s_at) / Fold change /veh PLEKHG5 (11737974_s_at) / RFU LRRC4B (11730491_at) / Fold change /veh LRRC4B (11730491_at) / RFU GIMAP4 (11747438_a_at) / Fold change /veh GIMAP4 (11747438_a_at) / RFU KRT8 (11758183_x_at) / Fold change /veh KRT8 (11758183_x_at) / RFU CNN1 (11734310_a_at) / Fold change /veh CNN1 (11734310_a_at) / RFU VPS37D (11726825_at) / Fold change /veh VPS37D (11726825_at) / RFU C10orf10 (11716522_x_at) / Fold change /veh C10orf10 (11716522_x_at) / RFU KIR2DL2 /// KIR2DL4 /// KIR2DL5A /// KIR2DL5B /// KIR2DS1 /// KIR2DS2 /// KIR2DS3 /// KIR2DS4 /// KIR3DL3 /// KIR3DL3 /// KIR3DS1 (11738374_at) / Fold change /veh KIR2DL2 /// KIR2DL4 /// KIR2DL5A /// KIR2DL5B /// KIR2DS1 /// KIR2DS2 /// KIR2DS3 /// KIR2DS4 /// KIR3DL3 /// KIR3DL3 /// KIR3DS1 (11738374_at) / RFU C1QL1 (11718748_at) / Fold change /veh C1QL1 (11718748_at) / RFU TMPRSS4 (11747572_a_at) / Fold change /veh TMPRSS4 (11747572_a_at) / RFU HAMP (11756126_x_at) / Fold change /veh HAMP (11756126_x_at) / RFU RNFT2 (11725882_a_at) / Fold change /veh RNFT2 (11725882_a_at) / RFU NR4A2 (11747474_a_at) / Fold change /veh NR4A2 (11747474_a_at) / RFU ABCC12 (11746883_a_at) / Fold change /veh ABCC12 (11746883_a_at) / RFU TMEM136 (11760407_x_at) / Fold change /veh TMEM136 (11760407_x_at) / RFU CLDN22 /// WWC2 (11732394_at) / Fold change /veh CLDN22 /// WWC2 (11732394_at) / RFU HLA-DPB1 (11760878_x_at) / Fold change /veh HLA-DPB1 (11760878_x_at) / RFU SPINT1 (11716480_a_at) / Fold change /veh SPINT1 (11716480_a_at) / RFU GAP43 (11754022_s_at) / Fold change /veh GAP43 (11754022_s_at) / RFU A4GNT (11735810_at) / Fold change /veh A4GNT (11735810_at) / RFU PRB3 (11715151_x_at) / Fold change /veh PRB3 (11715151_x_at) / RFU TUBB4B (11761932_at) / Fold change /veh TUBB4B (11761932_at) / RFU CAPN14 (11732068_a_at) / Fold change /veh CAPN14 (11732068_a_at) / RFU TMCC2 (11721928_a_at) / Fold change /veh TMCC2 (11721928_a_at) / RFU IRGQ (11745062_a_at) / Fold change /veh IRGQ (11745062_a_at) / RFU FAM174B (11720279_a_at) / Fold change /veh FAM174B (11720279_a_at) / RFU TMPRSS4 (11748680_a_at) / Fold change /veh TMPRSS4 (11748680_a_at) / RFU FAM212B (11763350_a_at) / Fold change /veh FAM212B (11763350_a_at) / RFU PLEKHG5 (11743358_a_at) / Fold change /veh PLEKHG5 (11743358_a_at) / RFU ZSCAN30 (11745921_a_at) / Fold change /veh ZSCAN30 (11745921_a_at) / RFU CMKLR1 (11741424_a_at) / Fold change /veh CMKLR1 (11741424_a_at) / RFU LOC101060620 /// MAPK8IP1 (11723275_at) / Fold change /veh LOC101060620 /// MAPK8IP1 (11723275_at) / RFU SPTSSB (11747773_x_at) / Fold change /veh SPTSSB (11747773_x_at) / RFU PRSS12 (11739890_at) / Fold change /veh PRSS12 (11739890_at) / RFU BIN1 (11741810_x_at) / Fold change /veh BIN1 (11741810_x_at) / RFU WNT11 (11732464_a_at) / Fold change /veh WNT11 (11732464_a_at) / RFU C10orf10 (11716521_a_at) / Fold change /veh C10orf10 (11716521_a_at) / RFU C5orf56 (11738089_at) / Fold change /veh C5orf56 (11738089_at) / RFU CYB561 (11721691_x_at) / Fold change /veh CYB561 (11721691_x_at) / RFU ANKRD19P (11752326_a_at) / Fold change /veh ANKRD19P (11752326_a_at) / RFU OR2T12 /// OR2T33 /// OR2T8 (11738714_s_at) / Fold change /veh OR2T12 /// OR2T33 /// OR2T8 (11738714_s_at) / RFU VCAN (11748164_a_at) / Fold change /veh VCAN (11748164_a_at) / RFU JSRP1 (11732532_at) / Fold change /veh JSRP1 (11732532_at) / RFU KRTAP10-11 (11738290_x_at) / Fold change /veh KRTAP10-11 (11738290_x_at) / RFU MYO3A (11730013_a_at) / Fold change /veh MYO3A (11730013_a_at) / RFU EBF3 (11725865_a_at) / Fold change /veh EBF3 (11725865_a_at) / RFU CAMK2N1 (11719241_x_at) / Fold change /veh CAMK2N1 (11719241_x_at) / RFU C5orf56 (11738088_a_at) / Fold change /veh C5orf56 (11738088_a_at) / RFU OLFML3 (11715873_a_at) / Fold change /veh OLFML3 (11715873_a_at) / RFU LOC100653217 /// NTM (11731650_a_at) / Fold change /veh LOC100653217 /// NTM (11731650_a_at) / RFU MAPK11 (11762145_a_at) / Fold change /veh MAPK11 (11762145_a_at) / RFU FIZ1 (11724087_x_at) / Fold change /veh FIZ1 (11724087_x_at) / RFU OASL (11726364_x_at) / Fold change /veh OASL (11726364_x_at) / RFU SOX15 (11748057_x_at) / Fold change /veh SOX15 (11748057_x_at) / RFU CD79A (11719716_a_at) / Fold change /veh CD79A (11719716_a_at) / RFU HIST1H1D (11736915_at) / Fold change /veh HIST1H1D (11736915_at) / RFU CASKIN2 (11723855_a_at) / Fold change /veh CASKIN2 (11723855_a_at) / RFU LOC730098 (11760151_x_at) / Fold change /veh LOC730098 (11760151_x_at) / RFU OR4N2 (11742367_at) / Fold change /veh OR4N2 (11742367_at) / RFU PRRT2 (11749266_a_at) / Fold change /veh PRRT2 (11749266_a_at) / RFU SNX32 (11753110_a_at) / Fold change /veh SNX32 (11753110_a_at) / RFU CDHR5 (11726645_a_at) / Fold change /veh CDHR5 (11726645_a_at) / RFU RCAN1 (11760418_a_at) / Fold change /veh RCAN1 (11760418_a_at) / RFU FAM167A (11723789_a_at) / Fold change /veh FAM167A (11723789_a_at) / RFU FAM26E (11764081_at) / Fold change /veh FAM26E (11764081_at) / RFU ISYNA1 (11749810_s_at) / Fold change /veh ISYNA1 (11749810_s_at) / RFU ACY1 (11761880_at) / Fold change /veh ACY1 (11761880_at) / RFU 11764098_at / Fold change /veh 11764098_at / RFU SAMD14 (11745864_x_at) / Fold change /veh SAMD14 (11745864_x_at) / RFU NPB (11741838_a_at) / Fold change /veh NPB (11741838_a_at) / RFU TMPRSS6 (11731388_a_at) / Fold change /veh TMPRSS6 (11731388_a_at) / RFU KRTAP10-2 (11738614_at) / Fold change /veh KRTAP10-2 (11738614_at) / RFU ARHGAP8 /// PRR5-ARHGAP8 (11727945_x_at) / Fold change /veh ARHGAP8 /// PRR5-ARHGAP8 (11727945_x_at) / RFU KRTAP5-7 /// NADSYN1 (11734609_at) / Fold change /veh KRTAP5-7 /// NADSYN1 (11734609_at) / RFU RASL12 (11751679_a_at) / Fold change /veh RASL12 (11751679_a_at) / RFU CDKN2B (11736163_a_at) / Fold change /veh CDKN2B (11736163_a_at) / RFU PRF1 (11729649_at) / Fold change /veh PRF1 (11729649_at) / RFU, ZNF638 /// ZNF638-IT1 / Fold change vs veh, ZNF638 /// ZNF638-IT1 / RFU, PANK3 / Fold change vs veh, PANK3 / RFU, SH3YL1 / Fold change vs veh, SH3YL1 / RFU, ZEB2 / Fold change vs veh, ZEB2 / RFU, NRIP1 / Fold change vs veh, NRIP1 / RFU, PTTG1IP / Fold change vs veh, PTTG1IP / RFU, CAPN2 / Fold change vs veh, CAPN2 / RFU, MED14 / Fold change vs veh, MED14 / RFU, SNORA58 / Fold change vs veh, SNORA58 / RFU, C1orf63 / Fold change vs veh, C1orf63 / RFU, LRRFIP1 / Fold change vs veh, LRRFIP1 / RFU, NDUFAF7 / Fold change vs veh, NDUFAF7 / RFU, SLC12A2 / Fold change vs veh, SLC12A2 / RFU, IBTK / Fold change vs veh, IBTK / RFU, ESF1 / Fold change vs veh, ESF1 / Fold change vs veh, TMEM50B / RFU, TAOK1 / Fold change vs veh, TAOK1 / RFU, ACBD3 / Fold change vs veh, ACBD3 / RFU, TMA16 / Fold change vs veh, TMA16 / RFU, RWDD3 / Fold change vs veh, RWDD3 / RFU, BCAT1 / Fold change vs veh, BCAT1 / RFU, EDEM3 / Fold change vs veh, EDEM3 / RFU, TMEM33 / Fold change vs veh, TMEM33 / RFU, WDR75 / Fold change vs veh, WDR75 / RFU, AHCTF1 / Fold change vs veh, AHCTF1 / RFU, TFRC / Fold change vs veh, TFRC / RFU, ZDHHC17 / Fold change vs veh, ZDHHC17 / RFU, NOM1 / Fold change vs veh, NOM1 / RFU, ARL8B / Fold change vs veh, ARL8B / RFU, ZBTB11 / Fold change vs veh, ZBTB11 / RFU, TAMM41 / Fold change vs veh, TAMM41 / RFU, KIAA1704 /// LOC100996395 / Fold change vs veh, KIAA1704 /// LOC100996395 / RFU, ING1 / Fold change vs veh, ING1 / RFU, TRMT61B / Fold change vs veh, TRMT61B / RFU, FUBP3 / Fold change vs veh, FUBP3 / RFU, TP53 / Fold change vs veh, TP53 / RFU, TNKS2 / Fold change vs veh, TNKS2 / RFU, ZFP14 / Fold change vs veh, ZFP14 / RFU, ACTR2 / Fold change vs veh, ACTR2 / RFU, PPP3R1 / Fold change vs veh, PPP3R1 / RFU, PIK3R1 / Fold change vs veh, PIK3R1 / RFU, HNRNPA1 / Fold change vs veh, HNRNPA1 / RFU, RNF170 / Fold change vs veh, RNF170 / RFU, ZNF28 / Fold change vs veh, ZNF28 / RFU, RNGTT / Fold change vs veh, RNGTT / RFU, OGT / Fold change vs veh, OGT / RFU, BRD1 / Fold change vs veh, BRD1 / RFU, MARS / Fold change vs veh, MARS / RFU, ZNF655 / Fold change vs veh, ZNF655 / RFU, FAHD1 / Fold change vs veh, FAHD1 / RFU, BDP1 / Fold change vs veh, BDP1 / RFU, LRRCC1 / Fold change vs veh, LRRCC1 / RFU, ARID1A / Fold change vs veh, ARID1A / RFU, ZNF146 / Fold change vs veh, ZNF146 / RFU, ZNF330 / Fold change vs veh, ZNF330 / RFU, GPN3 / Fold change vs veh, GPN3 / RFU, C9orf123 / Fold change vs veh, C9orf123 / RFU, N4BP2L2 / Fold change vs veh, N4BP2L2 / RFU, ARFIP1 / Fold change vs veh, ARFIP1 / RFU, FAM179B / Fold change vs veh, FAM179B / RFU, BCL10 / Fold change vs veh, BCL10 / RFU, UHRF1BP1L / Fold change vs veh, UHRF1BP1L / RFU, BET1 / Fold change vs veh, BET1 / RFU, CNOT2 / Fold change vs veh, CNOT2 / RFU, ZNF268 / Fold change vs veh, ZNF268 / Fold change vs veh, ZNF507 / RFU, DGCR2 / Fold change vs veh, DGCR2 / RFU, WDSUB1 / Fold change vs veh, WDSUB1 / Fold change vs veh, HSP90B1 /// MIR3652 / RFU, ADSS / Fold change vs veh, ADSS / RFU, GK / Fold change vs veh, GK / RFU, ZNF148 / Fold change vs veh, ZNF148 / RFU, TAF9 / Fold change vs veh, TAF9 / RFU, SLC1A5 / Fold change vs veh, SLC1A5 / RFU, SLMO2 / Fold change vs veh, SLMO2 / RFU, ABCC4 / Fold change vs veh, ABCC4 / RFU, LOC101060439 /// RAP1B / Fold change vs veh, LOC101060439 /// RAP1B / RFU, RFX7 / Fold change vs veh, RFX7 / RFU, GTPBP10 / Fold change vs veh, GTPBP10 / RFU, CNEP1R1 / Fold change vs veh, CNEP1R1 / RFU, BIVM-ERCC5 /// ERCC5 / Fold change vs veh, BIVM-ERCC5 /// ERCC5 / RFU, ILF3 / Fold change vs veh, ILF3 / RFU 11762660_at / Fold change /veh 11762660_at / RFU VCAN (11757783_s_at) / Fold change /veh VCAN (11757783_s_at) / RFU DDX43 (11728927_at) / Fold change /veh DDX43 (11728927_at) / RFU KRT8 (11758188_x_at) / Fold change /veh KRT8 (11758188_x_at) / RFU NKD1 (11759106_at) / Fold change /veh NKD1 (11759106_at) / RFU SRD5A1 (11742802_a_at) / Fold change /veh SRD5A1 (11742802_a_at) / RFU TPSAB1 /// TPSB2 (11721975_s_at) / Fold change /veh TPSAB1 /// TPSB2 (11721975_s_at) / RFU GSTM3 (11746129_a_at) / Fold change /veh GSTM3 (11746129_a_at) / RFU IL23R (11737362_x_at) / Fold change /veh IL23R (11737362_x_at) / RFU TMEM51 (11727254_a_at) / Fold change /veh TMEM51 (11727254_a_at) / RFU PIWIL2 (11732686_x_at) / Fold change /veh PIWIL2 (11732686_x_at) / RFU ORM1 (11744905_x_at) / Fold change /veh ORM1 (11744905_x_at) / RFU CCDC152 (11743942_at) / Fold change /veh CCDC152 (11743942_at) / RFU ECM1 (11717891_a_at) / Fold change /veh ECM1 (11717891_a_at) / RFU IL23R (11748794_a_at) / Fold change /veh IL23R (11748794_a_at) / RFU TNFAIP8L3 (11732012_x_at) / Fold change /veh TNFAIP8L3 (11732012_x_at) / RFU MBOAT4 (11741988_at) / Fold change /veh MBOAT4 (11741988_at) / RFU 11764193_at / Fold change /veh 11764193_at / RFU TMEM53 (11763286_at) / Fold change /veh TMEM53 (11763286_at) / RFU MAGEB2 (11727129_at) / Fold change /veh MAGEB2 (11727129_at) / RFU TMEM200A (11744735_a_at) / Fold change /veh TMEM200A (11744735_a_at) / RFU CCDC152 (11751479_a_at) / Fold change /veh CCDC152 (11751479_a_at) / RFU FAM211A (11726209_a_at) / Fold change /veh FAM211A (11726209_a_at) / RFU RGS16 (11746705_a_at) / Fold change /veh RGS16 (11746705_a_at) / RFU VCAN (11755009_s_at) / Fold change /veh VCAN (11755009_s_at) / RFU RHOB (11743442_s_at) / Fold change /veh RHOB (11743442_s_at) / RFU RGS16 (11720943_a_at) / Fold change /veh RGS16 (11720943_a_at) / RFU RGS16 (11720944_at) / Fold change /veh RGS16 (11720944_at) / RFU, VPS4B / Fold change vs veh, VPS4B / RFU, CREB1 / Fold change vs veh, CREB1 / RFU, DNAJC13 / Fold change vs veh, DNAJC13 / RFU, GNAQ / Fold change vs veh, GNAQ / RFU, CDK5R1 / Fold change vs veh, CDK5R1 / RFU, ZRANB3 / Fold change vs veh, ZRANB3 / RFU, CUL4A / Fold change vs veh, CUL4A / RFU, CCNY / Fold change vs veh, CCNY / RFU, UFL1 / Fold change vs veh, UFL1 / RFU, COG3 / Fold change vs veh, COG3 / RFU, DIAPH2 / Fold change vs veh, DIAPH2 / RFU, SKA2 / Fold change vs veh, SKA2 / RFU, AFF3 / Fold change vs veh, AFF3 / RFU, LMF1 / Fold change vs veh, LMF1 / RFU, IPO11 / Fold change vs veh, IPO11 / RFU, DFFB / Fold change vs veh, DFFB / RFU, FOXP1 / Fold change vs veh, FOXP1 / RFU, CARD8 / Fold change vs veh, CARD8 / RFU, STRN3 / Fold change vs veh, STRN3 / RFU, ADK / Fold change vs veh, ADK / RFU, RASSF2 / Fold change vs veh, RASSF2 / RFU, WIPF1 / Fold change vs veh, WIPF1 / RFU, LARP1B / Fold change vs veh, LARP1B / RFU, RASA1 / Fold change vs veh, RASA1 / RFU, RB1 / Fold change vs veh, RB1 / RFU, PPFIA1 / Fold change vs veh, PPFIA1 / RFU, MAT2A / Fold change vs veh, MAT2A / RFU, CCT5 / Fold change vs veh, CCT5 / RFU, WDR92 / Fold change vs veh, WDR92 / RFU, CUX1 / Fold change vs veh, CUX1 / RFU, TTC7A / Fold change vs veh, TTC7A / RFU, TMEM135 / Fold change vs veh, TMEM135 / RFU, DEPTOR / Fold change vs veh, DEPTOR / RFU, CPM / Fold change vs veh, CPM / RFU, DNAJB6 / Fold change vs veh, DNAJB6 / RFU, CACNA2D3 / Fold change vs veh, CACNA2D3 / RFU, DTX4 / Fold change vs veh, DTX4 / RFU, TFCP2 / Fold change vs veh, TFCP2 / RFU, GMCL1 /// GMCL1P1 / Fold change vs veh, GMCL1 /// GMCL1P1 / RFU, AEBP2 / Fold change vs veh, AEBP2 / RFU, SNHG1 /// SNORD22 /// SNORD25 /// SNORD26 /// SNORD27 /// SNORD28 /// SNORD29 /// SNORD31 / Fold change vs veh, SNHG1 /// SNORD22 /// SNORD25 /// SNORD26 /// SNORD27 /// SNORD28 /// SNORD29 /// SNORD31 / Fold change (Aza/veh), C12orf56 (ProbeSet 11735607_a_at) / Fold change (ACY-1035/veh), C12orf56 (ProbeSet 11735607_a_at) / Fold change (Aza/veh), FGFR1OP (ProbeSet 11751329_s_at) / Fold change (ACY-1035/veh), FGFR1OP (ProbeSet 11751329_s_at) / Fold change (Aza/veh), VPS36 (ProbeSet 11739960_a_at) / Fold change (ACY-1035/veh), VPS36 (ProbeSet 11739960_a_at) / RFU SYPL1 (11715823_x_at) / Fold change /veh SYPL1 (11715823_x_at) / RFU IGFBP7 (11715501_s_at) / Fold change /veh IGFBP7 (11715501_s_at) / RFU REEP3 (11722064_at) / Fold change /veh REEP3 (11722064_at) / RFU IGLL1 (11728026_x_at) / Fold change /veh IGLL1 (11728026_x_at): dose or concentration left out as unconfirmed", "settings": "MV-4-11 cells, 48 hours", "data": [{"smiles": "Nc1ccc(-c2cccs2)cc1NC(=O)c1ccc2c(c1)cc(C1CC1)n2CCN1CCOCC1", "note": "[ACY-1035]", "values": [{"measurement": "Fold change /veh FAM174B (11720279_a_at)", "result": 1.09}]}]}
